Experiments:
[1] = test system: IL-1 production in human monocytes and macrophages; assay: Inhibition of IL-1 production in human monocytes and macrophages (silica-stimulated, thymocyte 3H-thymidine assay); assay type: cell-based; conditions: 0.1 to 100 μg/ml; 100 μg/ml silica, 48 hours; FIG. 2
Experimental: Normal human peripheral blood was heparin-treated and diluted with equal amount of Hank's balanced salt solution (HBSS: Ca^2+ and Mg^2+ free). The diluted blood was put into a centrifuge tube containing therein Ficoll-Hypaque(Sigma, St. Louis, Mo., U.S.A.) layer having a density of 1.077 piled up on Ficoll-Hypaque layer having a density of 1.119, and then centrifuged at 700×g for 30 minutes to obtain monocytes from the layer between Ficoll-Hypaque layer having a density of 1.077 and serum layer, and neutrophils from the layer between Ficoll-Hypaque layer having a density of 1.077 and that having a density of 1.119. The separated cells were washed twice with 4° C. HBSS(Ca^2+ and Mg^2+ free) and suspended in RPMI 1640 medium(Gibco, Grand Island, N.Y., U.S.A.) containing 10% fetal bovine serum(FBS, Hyclone, Logan, Utah, U.S.A.). The suspensions were added to the wells of 24-well incubation plate(Costar, Cambridge, Mass., U.S.A.) and incubated at 37° C. for 2 hours to obtain monocytes, macrophages and neutrophils. […] The activity of IL-1 in the dialyzate was determined in accordance with the method of Gery described in Cellular Immunology, 64, 293-303(1981) as follows. […] When the incubation was completed, the cells were collected on the glass fiber filter and the amount of incorporated ^3 H-thymidine was determined by liquid scintillation counter(Beckman).

[2] = test system: O2^- production in human monocytes and macrophages; assay: Production of O2^- in silica-stimulated human monocytes and macrophages; assay type: cell-based; conditions: 10 μg/ml, 1 hour, 100 μg/ml silica, FIG. 5
Experimental: Normal human peripheral blood was heparin-treated and diluted with equal amount of Hank's balanced salt solution (HBSS: Ca^2+ and Mg^2+ free). The diluted blood was put into a centrifuge tube containing therein Ficoll-Hypaque(Sigma, St. Louis, Mo., U.S.A.) layer having a density of 1.077 piled up on Ficoll-Hypaque layer having a density of 1.119, and then centrifuged at 700×g for 30 minutes to obtain monocytes from the layer between Ficoll-Hypaque layer having a density of 1.077 and serum layer, and neutrophils from the layer between Ficoll-Hypaque layer having a density of 1.077 and that having a density of 1.119. The separated cells were washed twice with 4° C. HBSS(Ca^2+ and Mg^2+ free) and suspended in RPMI 1640 medium(Gibco, Grand Island, N.Y., U.S.A.) containing 10% fetal bovine serum(FBS, Hyclone, Logan, Utah, U.S.A.). The suspensions were added to the wells of 24-well incubation plate(Costar, Cambridge, Mass., U.S.A.) and incubated at 37° C. for 2 hours to obtain monocytes, macrophages and neutrophils. […] The change of color of the supernatant caused by the reduction of cytochrome C was measured at 550 nm by using a UV-Visible spectrophotometer (Kontron Instrument, Milano, Italy). […]

[3] = test system: collagen in rat pulmonary tissue; assay: Inhibition of collagen synthesis in rat pulmonary tissues (hydroxyproline); assay type: in vivo; conditions: rat pulmonary tissue treated with silica, DMSO and acanthoic acid; normal = 100%; FIG. 8
Experimental: IL-1 and TNF-α are known as cytokines which cause fibrosis and induce collagen synthesis in rat fibroblast(Kang, H. S., et al., Korean. J. Immunol., 14, 193(1992)). For the purpose of confirming the ability of acanthoic acid to suppress the action of IL-1 and TNF-α, its inhibitory effect on the collagen synthesis in rat pulmonary fibroblast and pulmonary tissues was determined. The amount of produced collagen in the culture of rat pulmonary fibroblast was measured by an indirect ELISA method, and that of pulmonary tissue was determined by measuring the concentration of hydroxyproline and calculating the amount of collagen therefrom by using the standard curve of internal control group. Further, for the purpose of determining the amount of synthesized collagen in rat pulmonary tissues, the amount of hydroxyproline was measured as follows. 0.1 to 0.2 g of the rat pulmonary tissue was mixed with 1 ml of PBS and then crushed in a Pyrex tube(Corning, Rochester, N.Y., U.S.A.). […] The resultant was freezed in a freezer, lyophilized in a freeze-dryer(Labconco) and dissolved completely in 1 ml of distilled water. 50 μl of the resulting solution was diluted with 50 μl of distilled water in a microcentrifuge tube. […] O.D. of the sample was measured at 650 nm, and the amount of hydroxyproline in the sample was calculated by employing the standard curve of internal control group.

C=C[C@@]1(C)CC=C2C(CCC3[C@](C)(C(=O)O)CCC[C@@]23C)C1 (single isomer, unassigned; (-)) [acanthoic acid, (-)-pimara-9(11),15-diene-19-oic acid]
inhibition of production of IL-1 [1]: inhibited by acanthoic acid in a concentration-dependent mode | amount of O2^- [2]: decrease significantly | decrease of amount of synthesized collagen [3]: about 50%
